Test results published in patent US11690379B2, “Aqueous insecticidal composition and methods of use thereof” (priority 2020, dated 2023).

Key:
Assay type in all cases: in vivo
[1] = tested on: silverleaf whitefly (Bemisia tabaci); test: Foliar spray bioefficacy, first assay (3 applications); settings: for # of Individuals per Leaf: Adults, 1st Appl. / # of Individuals per Leaf: Eggs, 1st Appl. / # of Individuals per Leaf: Nymphs, 1st Appl.: 7 days after first application; for # of Individuals per Leaf: Adults, 2nd Appl. / # of Individuals per Leaf: Eggs, 2nd Appl. / # of Individuals per Leaf: Nymphs, 2nd Appl.: 7 days after second application; for # of Individuals per Leaf: Adults, 3rd Appl. / # of Individuals per Leaf: Eggs, 3rd Appl. / # of Individuals per Leaf: Nymphs, 3rd Appl.: 8 days after third application
Protocol: (§1) A bioefficacy assay utilizing a foliar spray containing Spirotetramat and pyriproxyfen was conducted on the silverleaf whitefly (Bemisia tabaci) on tomatoes and bell peppers. […] Control was recorded 7 days after first application, 7 days after second application and 8 days after third application. Application rates and results of this assay can be found in Table 8, below.

[2] = tested on: Asian citrus psyllid (Diaphorina citri); test: Foliar spray bioefficacy on Valencia oranges
Protocol: A bioefficacy assay utilizing a foliar spray containing Spirotetramat and pyriproxyfen was conducted on the Asian citrus psyllid (Diaphorina citri) on Valencia oranges. Spirotetramat and pyriproxyfen were applied concurrently and separately as a foliar spray. Application rates and results of this assay can be found in Table 12, below.

[3] = tested on: silverleaf whitefly (Bemisia tabaci); test: Foliar spray bioefficacy, second assay (2 applications); settings: recorded 8 days after second application
Protocol: as §1, with “below. […] Control was recorded 8 days after second application. Application rates and results of this assay can be found in Table 9, below.” for “below.”

[4] = tested on: silverleaf whitefly (Bemisia tabaci); test: Foliar spray bioefficacy, third assay (3 applications); settings: for # of Individuals per Leaf: Adults, 1st Appl. / # of Individuals per Leaf: Eggs, 1st Appl. / # of Individuals per Leaf: Nymphs, 1st Appl.: 7 days after first application; for # of Individuals per Leaf: Adults, 2nd Appl. / # of Individuals per Leaf: Eggs, 2nd Appl. / # of Individuals per Leaf: Nymphs, 2nd Appl.: 7 days after second application; for # of Individuals per Leaf: Adults, 3rd Appl. / # of Individuals per Leaf: Eggs, 3rd Appl. / # of Individuals per Leaf: Nymphs, 3rd Appl.: 8 days after third application
Protocol: as §1, with “below. […] Control was recorded 7 days after first application, 7 days after second application and 8 days after third application. Application rates and results of this assay can be found in Table 10, below.” for “below.”

[5] = tested on: vine mealybug (Pseudococcus maritimus); test: Foliar spray bioefficacy on table grapes; settings: Spirotetramat 131 g/HA
Protocol: A bioefficacy assay utilizing a foliar spray containing Spirotetramat and pyriproxyfen was conducted on the vine mealybug (Pseudococcus maritimus) on table grapes. Spirotetramat and pyriproxyfen were applied concurrently as a foliar spray and spirotetramat was also applied individually. Application rates and results of this assay can be found in Table 11, below.

## CC(COc1ccc(Oc2ccccc2)cc1)Oc1ccccn1 (racemic) [Pyriproxyfen, 4-Phenoxyphenyl (R/S)-2-(2-pyridyloxy)propyl ether]
[1]; Pyriproxyfen 75.3 g/HA
  # of Individuals per Leaf: Adults, 1st Appl.: 0.5 per Leaf
  # of Individuals per Leaf: Eggs, 1st Appl.: 0.5 per Leaf
  # of Individuals per Leaf: Nymphs, 1st Appl.: 0.5 per Leaf
  # of Individuals per Leaf: Adults, 2nd Appl.: 1.5 per Leaf
  # of Individuals per Leaf: Eggs, 2nd Appl.: 2.3 per Leaf
  # of Individuals per Leaf: Nymphs, 2nd Appl.: 0.8 per Leaf
  # of Individuals per Leaf: Adults, 3rd Appl.: 1.0 per Leaf
  # of Individuals per Leaf: Eggs, 3rd Appl.: 2.0 per Leaf
  # of Individuals per Leaf: Nymphs, 3rd Appl.: 0.8 per Leaf
[2]; Pyriproxyfen 127.9 g/HA
  # of Nymphs: 14.1
[3]; Pyriproxyfen 75.3 g/HA
  # of Individuals per Leaf: Adults, 1st Appl.: 1.6 per Leaf
  # of Individuals per Leaf: Eggs, 1st Appl.: 27.4 per Leaf
  # of Individuals per Leaf: Nymphs, 1st Appl.: 65.9 per Leaf
[4]; Pyriproxyfen 75.3 g/HA
  # of Individuals per Leaf: Adults, 1st Appl.: 0.5 per Leaf
  # of Individuals per Leaf: Eggs, 1st Appl.: 0.5 per Leaf
  # of Individuals per Leaf: Nymphs, 1st Appl.: 0.5 per Leaf
  # of Individuals per Leaf: Adults, 2nd Appl.: 1.5 per Leaf
  # of Individuals per Leaf: Eggs, 2nd Appl.: 2.3 per Leaf
  # of Individuals per Leaf: Nymphs, 2nd Appl.: 0.8 per Leaf
  # of Individuals per Leaf: Adults, 3rd Appl.: 1.0 per Leaf
  # of Individuals per Leaf: Eggs, 3rd Appl.: 2.0 per Leaf
  # of Individuals per Leaf: Nymphs, 3rd Appl.: 0.8 per Leaf

## CCOC(=O)OC1=C(c2cc(C)ccc2C)C(=O)N[C@]12CC[C@@H](OC)CC2 [Spirotetramat, cis-3-(2,5-dimethylphenyl)-8-methoxy-2-oxo-1-azaspiro[4.5]dec-3-en-4-ylethyl carbonate]
[5]
  % bunches infested: 6.8%
[1]; Spirotetramat 87.6 g/HA
  # of Individuals per Leaf: Adults, 1st Appl.: 3.3 per Leaf
  # of Individuals per Leaf: Eggs, 1st Appl.: 6.5 per Leaf
  # of Individuals per Leaf: Nymphs, 1st Appl.: 17.8 per Leaf
  # of Individuals per Leaf: Adults, 2nd Appl.: 2.0 per Leaf
  # of Individuals per Leaf: Eggs, 2nd Appl.: 13.8 per Leaf
  # of Individuals per Leaf: Nymphs, 2nd Appl.: 30.5 per Leaf
  # of Individuals per Leaf: Adults, 3rd Appl.: 2.0 per Leaf
  # of Individuals per Leaf: Eggs, 3rd Appl.: 11.0 per Leaf
  # of Individuals per Leaf: Nymphs, 3rd Appl.: 16.8 per Leaf
[2]; Spirotetramat 163.7 g/HA
  # of Nymphs: 8.6
[3]; Spirotetramat 87.6 g/HA
  # of Individuals per Leaf: Adults, 1st Appl.: 2.6 per Leaf
  # of Individuals per Leaf: Eggs, 1st Appl.: 12.7 per Leaf
  # of Individuals per Leaf: Nymphs, 1st Appl.: 33.2 per Leaf
[4]; Spirotetramat 87.6 g/HA
  # of Individuals per Leaf: Adults, 1st Appl.: 3.3 per Leaf
  # of Individuals per Leaf: Eggs, 1st Appl.: 6.5 per Leaf
  # of Individuals per Leaf: Nymphs, 1st Appl.: 17.8 per Leaf
  # of Individuals per Leaf: Adults, 2nd Appl.: 2.0 per Leaf
  # of Individuals per Leaf: Eggs, 2nd Appl.: 13.8 per Leaf
  # of Individuals per Leaf: Nymphs, 2nd Appl.: 30.5 per Leaf
  # of Individuals per Leaf: Adults, 3rd Appl.: 2.0 per Leaf
  # of Individuals per Leaf: Eggs, 3rd Appl.: 11.0 per Leaf
  # of Individuals per Leaf: Nymphs, 3rd Appl.: 16.8 per Leaf
